Data reported in patent US4619943A, “Neolignans of Saururus cernuus L and analogues thereof” (priority 1984, dated 1986).
In brackets after ≈: the same amount, converted by molar mass. Several values for one entry are separate records, joined by “and”; a condition that tells them apart may be missing. Equal values may be shown once.

Legend:
Assay type in all cases: in vivo
[1] = Antiamphetamine activity (method of Weissman et al., mice instead of rats); conditions: mice
Protocol: Neuroleptic drugs are said to bind to postsynaptic dopamine receptors in the brain, thereby blocking dopaminergic transmission. […] Based on this, an assay for possible neuroleptic activity was developed and is commonly used. […] 151, 339 (1966)), except that mice were used instead of rats. A comparison under the same conditions was also made of the antiamphetamine activity of a standard neuroleptic drug, haloperidol, which gave an ED50 value of 0.5 mg/Kg (Table 2).

[2] = test system: mice; assay: Neuroleptic / CNS-depressant activity in experimental animals (general statements)
[3] = test system: southern armyworm (Spodoptera eridania); assay: Insecticidal activity against southern armyworm; conditions: both application rates, 1000 and 500 ppm, 14 days
Protocol: (§1) The present compounds were tested for insecticidal activity against cabbage looper (Trichoplusia ni [Hubner]), and southern armyworm (Spodoptera eridania) at application rates of 1000 and 500 ppm. The tests were conducted in petri dishes containing a solid food source in which the test compounds had been incorporated. The petri dishes containing the treated food source were infested with second instar larvae of southern armyworms or cabbage loopers. Ten larvae per replicate and two replicates per test rate were used. Mortality data were taken 14 days after infestation.

[4] = test system: Pimephales promelas; assay: Acute toxicity to fish; conditions: for % Mortality, Avg / % Mortality, single replicates (1 to 6): 2 hours
Protocol: Many compounds having insecticidal activity also show toxicity to fish. For example, rotenoids, pyrethrins, and DDT have significant toxicity to fish. For this reason, fish have been used frequently to indicate potential insecticidal activity. The present compounds were tested for acute toxicity to fish by the method described in "Methods For Acute Toxicity Tests With Fish, Macro-Invertebrates and Amphibians", EPA 660/3-75-009, Committee on Methods for Toxicity Tests With Aquatic Organisms, Environmental Protection Agency, Corvallis, OR, 1975.
The fish, commonly known as Missouri minnows or fat heads (Pimephales promelas, family, cyprinidae) were purchased from a local hatchery and equilibrated to the new surroundings for 24 hours. They were kept in deionized water, previously adjusted to pH 6.5 with phosphate buffer at 23° C. Sufficient oxygen was provided, and the fish were deprived of food during the test period.
Groups of six fish were placed in containers with different concentrations of the test compound. The percent mortality was recorded every 30 minutes. The LC 50 values (mg/L) and 95% confidence limits were determined from the percent mortality data after 2 hours of exposure from 6 separate replicates using the method of Lichfield and Wiloxon [(J. Pharmacology and Exp. Therepeutics, 96, 99-113 (1949))].

[5] = test system: cabbage looper (Trichoplusia ni [Hubner]); assay: Insecticidal activity against cabbage looper; conditions: both application rates, 1000 and 500 ppm, 14 days
Protocol: as §1

[6] = test system: mosquito larvae (Aedes aegypti); assay: Mosquito larvae test; conditions: 24 hours
Protocol: Similarly, in a test using mosquito larvae (Aedes aegypti) as the insect test species, SC-7 gave 15% mortality and SC-8 gave 93% mortality at an application rate of 100 ppm. In this test, one ml of a solution of 1000 ppm of the test compound in 10% acetone - 90% water was added to 9 ml of water in a culture tube. Ten mosquito larvae were added, and mortality readings were taken 24 hours later.

With `O=C(CCCN1CCC(O)(c2ccc(Cl)cc2)CC1)c1ccc(F)cc1` [Haloperidol, haloperidol, reference compound] the ED50 ([1]; Mus musculus, inhibition of amphetamine-induced agitation, stereotypy, body-hydration) was 0.5 mg/kg, the “% Inhibition (antiamphetamine activity)” value ([1]; dose 0.05 mg/Kg) was 10% and the “% Inhibition (antiamphetamine activity)” value ([1]; dose 0.1 mg/Kg) was 20%. For the same compound, the “% Inhibition (antiamphetamine activity)” value ([1]; dose 0.5 mg/Kg) was 40%, the “% Inhibition (antiamphetamine activity)” value ([1]; dose 0.75 mg/Kg) was 50% and the “% Inhibition (antiamphetamine activity)” value ([1]; dose 1.0 mg/Kg) was 60%. The “% Inhibition (antiamphetamine activity)” value ([1]; dose 1.3 mg/Kg) was 70% and the “% Inhibition (antiamphetamine activity)” value ([1]; dose 1.8 mg/Kg) was 90%.

With `COc1ccc(C(O)C(C)Oc2ccc([C@@H]3O[C@@H](c4ccc(OC(C)C(O)c5ccc6c(c5)OCO6)c(OC)c4)[C@@H](C)[C@@H]3C)cc2OC)cc1OC` (stereo partly drawn) [SC-7, 2α-[3-methoxy-4-{threo-3-hydroxy-3-(3,4-dimethoxyphenyl)}isopropoxyphenyl]-5β-[3-methoxy-4-{threo-3-hydroxy-3-(3,4-methylenedioxyphenyl)}isopropoxyphenyl]-3α,4β-dimethyltetrahydrofuran] the CNS-depressant activity ([2]; experimental animals / mice) was “activity similar to SC-8”, the neuroleptic activity ([2]; mouse, in vivo) was “neuroleptically active” and the “insecticidal activity, southern armyworm” value [3] was “essentially inactive”. The “% Mortality, Avg” value ([4]; 0.03 mg/L) was 6%, the “% Mortality, single replicates (1 to 6)” value ([4]; 0.03 mg/L, 120 min) was 0% (4×) and 17% (2×) and the “% Mortality, Avg” value ([4]; 0.06 mg/L) was 38%. For the same compound, the “% Mortality, single replicates (1 to 6)” value ([4]; 0.06 mg/L, 120 min) was 33% (4×) and 17% (2×), the “% Mortality, Avg” value ([4]; 0.09 mg/L) was 41% and the “% Mortality, single replicates (1 to 6)” value ([4]; 0.09 mg/L, 120 min) was 50% and 33% (5×). For the same compound, the “% Mortality, Avg” value ([4]; 0.13 mg/L) was 58%, the “% Mortality, single replicates (1 to 6)” value ([4]; 0.13 mg/L, 120 min) was 83% and 67% and 50% (4×) and the “% Mortality, Avg” value ([4]; 0.25 mg/L) was 86%. The “% Mortality, single replicates (1 to 6)” value ([4]; 0.25 mg/L, 120 min) was 100% (2×) and 83% (3×) and 67%, the “% Mortality, Avg” value ([4]; 0.5 mg/L) was 100% and the “% Mortality, single replicates (1 to 6)” value ([4]; 0.5 mg/L) was 100%. The LC50 ([4]; 2 hours of exposure, pH 6.5, 23° C) was 0.115 µg/mL (≈ 0.16 µM), the “insecticidal activity, cabbage looper” value [5] was “essentially inactive” and the mortality at 100 ppm [6] was 15%.
